Measurements reported in US20230011869A1 (Hoffmann-La Roche Inc., priority 2018, published 2023).
Structures can show the parent of a compound that is named as a salt. Where two headings read alike, the source gives them in different places.

Test system: Acinetobacter baumannii ATCC17978
Assay: Antimicrobial susceptibility testing: 90% growth inhibitory concentration (IC90) determination, Iso-Sensitest broth
Type: cell-based
Summary of the method: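 A. baumannii ATCC17978 grown in Iso-Sensitest broth across 10 compound concentrations at 35±2 °C.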

[1] = 90% growth inhibitory concentration, Acinetobacter baumannii ATCC17978, Iso-Sensitest broth, OD 600 nm over 16 h, read-out: ATCC17978 IC90
[2] = Acinetobacter baumannii, ATCC17978, 16 h, read-out: ATCC17978 IC90, 90% growth inhibitory concentration, Acinetobacter baumannii ATCC17978, Iso-Sensitest broth, OD 600 nm over 16 h

IC90 [1] [nM]	SMILES	IC90 [2] [nM]
500	COc1ccc(-c2cnc3c(Nc4ccc(C(=O)N5CCC(CN)CC5)c(C(F)F)c4)nccn23)cc1F [Example 340, [4-(aminomethyl)piperidin-1-yl]-[2-(difluoromethyl)-4-[[3-(3-fluoro-4-methoxyphenyl)imidazo[1,2-a]pyrazin-8-yl]amino]phenyl]methanone]	–
–	Cc1cc(Nc2nccn3c(-c4ccc(OC(F)F)cc4)cnc23)ccc1C(=O)N1CCC(C(=O)N(C)CC(O)CO)CC1 (stereo not shown) [Example 313, 1-[4-[[3-[4-(difluoromethoxy)phenyl]imi-dazo[1,2-a]pyrazin-8-yl]amino]-2-methylbenzoyl]-N-(2,3-dihydroxypropyl)-N-methylpiperidine-4-carboxamide]	230
–	Cc1cc(Nc2nccn3c(-c4ccc(OC(F)F)cc4)cnc23)ccc1C(=O)N1CCN(C(=O)[C@H]2CNCCN2)CC1 [Example 508, [4-[[3-[4-(difluoromethoxy)phenyl]imi-dazo[1,2-a]pyrazin-8-yl]amino]-2-methylphenyl]-[4-[(2R)-piperazine-2-carbonyl]piperazin-1-yl]methanone; hydrochloride]	530
–	Cc1cc(Nc2nccn3c(-c4ccc(O[C@H](C)C#N)c(F)c4F)cnc23)ccc1C(=O)N1CCN(CCN(C)C)CC1 [Example 239, (2R)-2-[4-[8-[4-[4-[2-(dimethylamino)ethyl]piperazine-1-carbonyl]-3-methyl-anilino]imidazo[1,2-a]pyrazin-3-yl]-2,3-difluoro-phenoxy]propanenitrile formate]	790
71	Cc1cc(Nc2nccn3c(-c4ccc(OCC#N)c(F)c4Cl)cnc23)ccc1C(=O)N1CCN(C(=O)NC[C@H](C)N)CC1 [Example 165, N-[(2S)-2-aminopropyl]-4-[4-[[3-[2-chloro-4-(cyanomethoxy)-3-fluoro-phenyl]imidazo[1,2-a]pyrazin-8-yl]amino]-2-methyl-benzoyl]piperazine-1-carboxamide formate]	–
190	COc1ccc(-c2cnc3c(Nc4ccc(C(=O)N5CCN(C(=O)[C@H]6CCCN6)CC5)c(C)c4)nccn23)cc1F [Example 179, [4-[[3-(3-fluoro-4-methoxy-phenyl)imidazo[1,2-a]pyrazin-8-yl]amino]-2-methyl-phenyl]-[4-[(2R)-pyrrolidine-2-carbonyl]piperazin-1-yl]methanone hydrochloride]	–
–	Cc1cc(Nc2nccn3c(-c4ccc(OC(F)F)cc4)cnc23)ccc1C(=O)N1CCC(C(=O)NCC2CN(S(C)(=O)=O)C2)CC1 [Example 306, 1-[4-[[3-[4-(difluoromethoxy)phenyl]imi-dazo[1,2-a]pyrazin-8-yl]amino]-2-methylbenzoyl]-N-[(1-methylsulfonylazetidin-3-yl)methyl]piperidine-4-carboxamide]	95
–	COc1ccc(-c2cnc3c(Nc4ccc(C(=O)N5CCN(C(=O)N6CCNCC6)CC5)c(C)c4)nccn23)c(F)c1F [Example 480, [4-[[3-(2,3-difluoro-4-methoxyphenyl)imidazo[1,2-a]pyrazin-8-yl]amino]-2-methylphenyl]-[4-(piperazine-1-carbonyl)piperazin-1-yl]methanone; formic acid]	140
–	Cc1cc(Nc2nccn3c(-c4ccc(OC(F)F)cc4)cnc23)ccc1C(=O)N1CCN(C(=O)C2CCNCC2O)CC1 (stereo not shown) [Example 523, [4-[[3-[4-(difluoromethoxy)phenyl]imi-dazo[1,2-a]pyrazin-8-yl]amino]-2-methylphenyl]-[4-(3-hydroxypiperidine-4-carbonyl)piperazin-1-yl]methanone; hydrochloride]	390
930	Cc1cc(Nc2nccn3c(-c4ccc(OC(F)F)cc4)cnc23)ccc1C(=O)N1CCC(Cn2cccn2)CC1 [Example 16, (4-((1H-pyrazol-1-yl)methyl)piperidin-1-yl)(4-((3-(4-(difluoromethoxy)phenyl)imidazo[1,2-a]pyrazin-8-yl)amino)-2-methylphenyl)methanone]	–
